Results taken from ChEMBL document CHEMBL1155797, “Cinnamoyl- and hydroxycinnamoyl amides of glaucine and their antioxidative and antiviral activities” (Bioorg Med Chem, 2008).

Key:
[1] = tested on: Radical scavenging activity; assay: Antioxidant activity assessed as DPPH free radical scavenging activity at 3.6 mM after 10 mins; assay type: functional
[2] = tested on: Radical scavenging activity; assay: Antioxidant activity assessed as DPPH free radical scavenging activity at 0.9 mM after 10 mins; assay type: functional
[3] = tested on: Radical scavenging activity; assay: Antioxidant activity assessed as DPPH free radical scavenging activity at 1.8 mM after 10 mins; assay type: functional
[4] = tested on: Radical scavenging activity; assay: Antioxidant activity assessed as DPPH free radical scavenging activity at 1.8 mM after 20 mins; assay type: functional
[5] = tested on: Radical scavenging activity; assay: Antioxidant activity assessed as DPPH free radical scavenging activity at 0.9 mM after 20 mins; assay type: functional
[6] = tested on: Radical scavenging activity; assay: Antioxidant activity assessed as DPPH free radical scavenging activity at 3.6 mM after 20 mins; assay type: functional
Echovirus E13 [7] = assay: Antiviral activity against Echovirus 13 in human FL cells; assay type: functional, organism-based; settings: Enterovirus B
Coxsackievirus B1 [8] = assay: Antiviral activity against Coxsackievirus B1 in human FL cells; assay type: functional, organism-based; settings: Enterovirus B
HeLa = assay: Cytotoxicity against human HeLa Ohio-1 cells
[9] = Cytotoxicity against human HeLa Ohio-1 cells; assay type: cell-based
Poliovirus 1 [10] = assay: Antiviral activity against Poliovirus type 1 Lsc-2ab in human FL cells; assay type: functional, organism-based; settings: Enterovirus C
[11] = Cytotoxicity against human FL cells after 24 hrs; assay type: cell-based
[12] = Selectivity index, CC50 for human FL cells to IC50 for Poliovirus type 1 Lsc-2ab; assay type: functional
[13] = Selectivity index, CC50 for human HeLa Ohio-1 cells to IC50 for Human rhinovirus type 14; assay type: functional
[14] = Selectivity index, CC50 for human FL cells to IC50 for Coxsackievirus B1; assay type: functional
[15] = Selectivity index, CC50 for human FL cells to IC50 for Echovirus 13; assay type: functional
Poliovirus 1 [16] = assay: Antiviral activity against Poliovirus type 1 Lsc-2ab in human FL cells assessed as inhibition of cytopathic effect relative to control; assay type: functional
Echovirus E13 [17] = assay: Antiviral activity against Echovirus 13 in human FL cells assessed as inhibition of cytopathic effect relative to control; assay type: functional
Coxsackievirus B1 [18] = assay: Antiviral activity against Coxsackievirus B1 in human FL cells assessed as inhibition of cytopathic effect relative to control; assay type: functional

Row | SMILES | Activity [1] | Activity [2] | Activity [3] | Activity [4] | Activity [5] | Activity [6] | IC50 (Echovirus E13 [7]) | IC50 (Coxsackievirus B1 [8]) | CC50 (HeLa) | IC50 [9] | IC50 (Poliovirus 1 [10]) | CC50 at 24 h [11] | Ratio CC50/IC50 [12] | Ratio CC50/IC50 [13] | Ratio CC50/IC50 [14] | Ratio CC50/IC50 [15] | inhibition (INH) (Poliovirus 1 [16]) | inhibition (INH) (Echovirus E13 [17]) | inhibition (INH) (Coxsackievirus B1 [18])
1 | COc1cc2c(cc1OC)-c1c(OC)c(OC)c(CN)c3c1C(C2)N(C)CC3 (centres undefined) | 2.9% | 1.6% | 2.2% | 3% | 2.5% | 3.8% |  |  |  |  |  |  |  |  |  |  |  |  | 
2 | Cc1cc(CCCCCCCOc2ccc(C3=NCCO3)cc2)on1 [DISOXARIL] |  |  |  |  |  |  | 1.3 µM | 2 µM | 21 µM | 1.5 µM | 2 µM | 25 µM | 12.5 | 14 | 12.5 | 19.2 |  |  | 
3 | O=C(O)/C=C/c1ccc(O)cc1 | 4.5% | 2.1% | 3.7% | 4.7% | 2.9% | 6.1% |  |  |  |  |  |  |  |  |  |  |  |  | 
4 | COc1cc(/C=C/C(=O)O)cc(OC)c1O | 69% | 16.1% | 26.5% | 31.9% | 17.2% | 69.6% |  |  |  |  |  |  |  |  |  |  |  |  | 
5 | COc1cc(/C=C/C(=O)O)ccc1O | 36.7% | 12% | 21% | 25.1% | 13.8% | 44.3% |  |  |  |  |  |  |  |  |  |  |  |  | 
6 | COc1cc(/C=C/C(=O)NCc2c3c4c(c(OC)c2OC)-c2cc(OC)c(OC)cc2CC4N(C)CC3)ccc1O (centres undefined) | 31.2% | 8.3% | 16.6% | 19.4% | 10.1% | 36.1% |  |  | 113 µM | 12 µM |  | 105 µM |  | 9.4 |  |  | 0% | <=25% | 0%
7 | COc1cc2c(cc1OC)-c1c(OC)c(OC)cc3c1[C@H](C2)N(C)CC3 [GLAUCINE] | 1.4% | 0.8% | 1.1% | 1.3% | 1.2% | 1.6% | 60 µM | 21 µM | 182 µM | 22 µM | 60 µM | 115 µM | 1.9 | 8.3 | 5.5 | 1.9 |  |  | 
8 | COc1cc2c(cc1OC)-c1c(OC)c(OC)c(CNC(=O)/C=C/c3cc(OC)c(O)c(OC)c3)c3c1C(C2)N(C)CC3 (centres undefined) | 26.3% | 8% | 14.4% | 18% | 10.5% | 31.6% |  |  | 125 µM | 28 µM |  | 112 µM |  | 4.5 |  |  | 0% | 0% | 0%
9 | COc1cc2c(cc1OC)-c1c(OC)c(OC)c(CNC(=O)/C=C/c3ccccc3O)c3c1C(C2)N(C)CC3 (centres undefined) | 3.3% | 1.1% | 2.3% | 3.6% | 0.8% | 4.2% |  |  | 155 µM | 15 µM |  | 152 µM |  | 10.3 |  |  | <=25% | 0% | 0%
10 | COc1cc2c(cc1OC)-c1c(OC)c(OC)c(CNC(=O)/C=C/c3ccc(O)cc3)c3c1C(C2)N(C)CC3 (centres undefined) | 3.2% | 1.8% | 2% | 2.5% | 1.8% | 4.8% | 32 µM |  | 143 µM | 13 µM |  | 160 µM |  | 11 |  | 5 | <50% |  | 0%
11 | O=C(O)/C=C/c1ccccc1O | 3.3% | 2.1% | 2.2% | 2.7% | 2.4% | 3.6% |  |  |  |  |  |  |  |  |  |  |  |  | 
12 | COc1cc2c(cc1OC)-c1c(OC)c(OC)cc3ccnc(c13)C2=O [OXOGLAUCINE] |  |  |  |  |  |  | 0.5 µM | 2.5 µM | 51 µM | 0.3 µM | 1.2 µM | 52 µM | 43.3 | 170 | 20.8 | 104 |  |  | 
